Counter-ions that a name gives are not always drawn.
Each compound was assayed against human CXCR3-A receptor (Homo sapiens (Human), UniProt P49682) (assay: 125I-CXCL10 competition radioligand binding assay). Conditions: displacement of 125I-CXCL10 from membranes of CHO cells expressing human recombinant CXCR3-A.
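Note: One-hour incubation of membranes with tracer, bound radioligand separated by glass fibre filtration, IC50 derived from four-parameter nonlinear fit of competition curves.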

Sequence of human CXCR3-A receptor (P49682 whole entry): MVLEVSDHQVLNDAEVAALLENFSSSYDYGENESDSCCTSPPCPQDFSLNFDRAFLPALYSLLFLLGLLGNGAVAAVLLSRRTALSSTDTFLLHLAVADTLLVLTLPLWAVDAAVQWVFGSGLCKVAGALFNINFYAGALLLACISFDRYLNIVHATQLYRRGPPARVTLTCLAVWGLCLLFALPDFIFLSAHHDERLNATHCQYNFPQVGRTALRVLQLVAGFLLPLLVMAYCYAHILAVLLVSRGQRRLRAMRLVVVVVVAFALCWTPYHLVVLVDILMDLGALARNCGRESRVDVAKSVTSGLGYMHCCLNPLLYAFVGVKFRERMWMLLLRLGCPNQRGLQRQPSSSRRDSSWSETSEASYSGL

Row | Compound | IC50 [nM]
1 | COc1cc(CN(CC2CCCC2)C2c3ccc(Cl)cc3CC2C(=O)O)ccc1OCCN1C(=O)CCC1=O (stereo not drawn) [Example 171, 5-Chloro-1-(cyclopentylmethyl-{4-[2-(2,5-dioxo-pyrrolidin-1-yl)-ethoxy]-3-methoxy-benzyl}-amino)-indan-2-carboxylic acid] | 389
2 | Cc1cc(CN(CC2CCCC2)[C@@H](CC(=O)O)c2ccc(Cl)cc2)ccc1OCCN1C(=O)CN(C)C1=O [Example 199, (S)-3-(4-Chloro-phenyl)-3-(cyclopentylmethyl-{3-methyl-4-[2-(3-methyl-2,5-dioxo-imidazolidin-1-yl)-ethoxy]-benzyl}-amino)-propionic acid] | 175
3 | CCCCN(Cc1ccc(OCCN2C(=O)CCC2=O)c(F)c1)C(CC(=O)O)c1ccc(Cl)c(Cl)c1 (stereo not drawn) [Example 64, 3-(Butyl-{4-[2-(2,5-dioxo-pyrrolidin-1-yl)-ethoxy]-3-fluoro-benzyl}-amino)-3-(3,4-dichloro-phenyl)-propionic acid] | 456
4 | COc1cc(CN(CC2CCCC2)C(CC(=O)O)c2ccc(C(F)(F)F)cc2)ccc1OCCN1C(=O)CCC1=O (stereo not drawn) [Example 180, 3-(Cyclopentylmethyl-{4-[2-(2,5-dioxo-pyrrolidin-1-yl)-ethoxy]-3-methoxy-benzyl}-amino)-3-(4-trifluoromethyl-phenyl)-propionic acid] | 198
5 | CCCN(Cc1ccc(OCCn2c(=O)ccn(C)c2=O)c(OC)c1)C(CC(=O)O)c1ccc(Cl)cc1Cl (stereo not drawn) [Example 159, 3-(2,4-Dichloro-phenyl)-3-({3-methoxy-4-[2-(3-methyl-2,6-dioxo-3,6-dihydro-2H-pyrimidin-1-yl)-ethoxy]-benzyl}-propyl-amino)-propionic acid] | 354
6 | CN1CC(=O)N(CCOc2ccc(CN(CC3CCCCC3)[C@H](CC(=O)O)c3ccc(Cl)cc3)cc2Cl)C1=O [Example 202, (R)-3-({3-Chloro-4-[2-(3-methyl-2,5-dioxo-imidazolidin-1-yl)-ethoxy]-benzyl}-cyclohexylmethyl-amino)-3-(4-chloro-phenyl)-propionic acid] | 810
7 | CCN(Cc1ccc(OCCN2C(=O)CCC2=O)c(C)c1)C(c1ccc(Cl)cc1)C(C)C(=O)O (stereo not drawn) [Example 175, 3-(4-Chloro-phenyl)-3-({4-[2-(2,5-dioxo-pyrrolidin-1-yl)-ethoxy]-3-methyl-benzyl}-ethyl-amino)-2-methyl-propionic acid] | 266
8 | CCc1cc(CN(CC2CCCCC2)C(CC(=O)O)c2ccc(Cl)c(F)c2)ccc1OCCN1C(=O)CCC1=O (stereo not drawn) [Example 95, 3-(4-Chloro-3-fluoro-phenyl)-3-(cyclohexylmethyl-{4-[2-(2,5-dioxo-pyrrolidin-1-yl)-ethoxy]-3-ethyl-benzyl}-amino)-propionic acid] | 144
9 | CCCN(Cc1ccc(OCCN2C(=O)CCC2=O)c(F)c1)[C@H](CC(=O)O)c1ccc(Cl)cc1 [Example 52, (R)-3-(4-Chloro-phenyl)-3-({4-[2-(2,5-dioxo-pyrrolidin-1-yl)-ethoxy]-3-fluoro-benzyl}-propyl-amino)-propionic acid] | 990
10 | Cc1cc(CN(CC2CCCC2)[C@@H](CC(=O)O)c2ccc(Cl)c(Cl)c2)ccc1OCCN1C(=O)CN(C)C1=O [Example 200, (S)-3-(Cyclopentylmethyl-{3-methyl-4-[2-(3-methyl-2,5-dioxo-imidazolidin-1-yl)-ethoxy]-benzyl}-amino)-3-(3,4-dichloro-phenyl)-propionic acid; hydrochloride] | 234
11 | Cc1cc(CN(CC2CC2)C(CC(=O)O)c2ccc3c(c2)CCO3)ccc1CCCN1C(=O)CCC1=O (stereo not drawn) [Example 142, 3-(Cyclopropylmethyl-{4-[3-(2,5-dioxo-pyrrolidin-1-yl)-propyl]-3-methyl-benzyl}-amino)-3-(2,3-dihydro-benzofuran-5-yl)-propionic acid] | 211
12 | CCCN(Cc1ccc(OCCN2C(=O)CCC2=O)c(Cl)c1)C(CC(=O)O)c1ccc(Cl)c(Cl)c1 (stereo not drawn) [Example 107, 3-({3-Chloro-4-[2-(2,5-dioxo-pyrrolidin-1-yl)-ethoxy]-benzyl}-propyl-amino)-3-(3,4-dichloro-phenyl)-propionic acid] | 570
13 | COc1cc(CN(CCC(F)(F)F)C(CC(=O)O)c2ccc(Cl)cc2)ccc1OCCn1c(=O)ccn(C)c1=O (stereo not drawn) [Example 130, 3-(4-Chloro-phenyl)-3-[{3-methoxy-4-[2-(3-methyl-2,6-dioxo-3,6-dihydro-2H-pyrimidin-1-yl)-ethoxy]-benzyl}-(3,3,3-trifluoro-propyl)-amino]-propionic acid] | 1250
14 | CC(C)CN(Cc1ccc(OCCN2C(=O)CCC2=O)c(F)c1)C(CC(=O)O)c1ccc(Cl)c(Cl)c1 (stereo not drawn) [Example 63, 3-(3,4-Dichloro-phenyl)-3-({4-[2-(2,5-dioxo-pyrrolidin-1-yl)-ethoxy]-3-fluoro-benzyl}-isobutyl-amino)-propionic acid] | 303
15 | Cc1cc(CN(CC2CCCCC2)[C@H](CC(=O)O)c2ccc(Cl)cc2)ccc1OCCN1C(=O)CN(C)C1=O [Example 31, (R)-3-(4-Chloro-phenyl)-3-(cyclohexylmethyl-{3-methyl-4-[2-(3-methyl-2,5-dioxo-imidazolidin-1-yl)-ethoxy]-benzyl}-amino)-propionic acid] | 416

The next compounds have a lower IC50 than those just listed; values first:

Row | IC50 [nM] | Compound
16 | 120 | CCCCN(Cc1ccc(OCCN2C(=O)CCC2=O)c(CC)c1)C(CC(=O)O)c1ccc(Cl)c(Cl)c1 (stereo not drawn) [Example 99, 3-(Butyl-{4-[2-(2,5-dioxo-pyrrolidin-1-yl)-ethoxy]-3-ethyl-benzyl}-amino)-3-(3,4-dichloro-phenyl)-propionic acid]
17 | 91 | COc1cc(CN(CC2CCCC2)C(CC(=O)O)c2ccc(C)cc2)ccc1OCCN1C(=O)CCC1=O (stereo not drawn) [Example 179, 3-(Cyclopentylmethyl-{4-[2-(2,5-dioxo-pyrrolidin-1-yl)-ethoxy]-3-methoxy-benzyl}-amino)-3-p-tolyl-propionic acid]
18 | 72 | COc1cc(CN(CC(C)C)C(CC(=O)O)c2ccc(Cl)c(Cl)c2)ccc1SCCN1C(=O)CCC1=O (stereo not drawn) [Example 193, 3-(3,4-Dichloro-phenyl)-3-({4-[2-(2,5-dioxo-pyrrolidin-1-yl)-ethylsulfanyl]-3-methoxy-benzyl}-isobutyl-amino)-propionic acid]
19 | 66 | CCc1cc(CN(CC(C)C)C(CC(=O)O)c2ccc(Cl)c(F)c2)ccc1OCCN1C(=O)CCC1=O (stereo not drawn) [Example 92, 3-(4-Chloro-3-fluoro-phenyl)-3-({4-[2-(2,5-dioxo-pyrrolidin-1-yl)-ethoxy]-3-ethyl-benzyl}-isobutyl-amino)-propionic acid]
20 | 58 | CCCN(Cc1ccc(OCCN2C(=O)CCC2=O)c(CC)c1)C(CC(=O)O)c1ccc(Cl)cc1 (stereo not drawn) [Example 85, 3-(4-Chloro-phenyl)-3-({4-[2-(2,5-dioxo-pyrrolidin-1-yl)-ethoxy]-3-ethyl-benzyl}-propyl-amino)-propionic acid]
21 | 56 | CCCN(Cc1ccc(OCCN2C(=O)CCC2=O)c(CC)c1)C(CC(=O)O)c1ccc(Cl)c(F)c1 (stereo not drawn) [Example 91, 3-(4-Chloro-3-fluoro-phenyl)-3-({4-[2-(2,5-dioxo-pyrrolidin-1-yl)-ethoxy]-3-ethyl-benzyl}-propyl-amino)-propionic acid]
22 | 55 | CCCN(Cc1ccc(SCCN2C(=O)CCC2=O)c(OC)c1)C(CC(=O)O)c1ccc(Cl)c(Cl)c1 (stereo not drawn) [Example 192, 3-(3,4-Dichloro-phenyl)-3-({4-[2-(2,5-dioxo-pyrrolidin-1-yl)-ethylsulfanyl]-3-methoxy-benzyl}-propyl-amino)-propionic acid]
23 | 54 | COc1cc(CN(CC2CCCC2)C(CC(=O)O)c2ccc3c(c2)CCO3)ccc1CCCN1C(=O)CCC1=O (stereo not drawn) [Example 139, 3-(Cyclopentylmethyl-{4-[3-(2,5-dioxo-pyrrolidin-1-yl)-propyl]-3-methoxy-benzyl}-amino)-3-(2,3-dihydro-benzofuran-5-yl)-propionic acid]
24 | 51 | CCc1cc(CN(CC2CCCCC2)C(CC(=O)O)c2ccc(Cl)cc2)ccc1OCCN1C(=O)CCC1=O (stereo not drawn) [Example 89, 3-(4-Chloro-phenyl)-3-(cyclohexylmethyl-{4-[2-(2,5-dioxo-pyrrolidin-1-yl)-ethoxy]-3-ethyl-benzyl}-amino)-propionic acid]
25 | 51 | CCCCN(Cc1ccc(CCCN2C(=O)CCC2=O)c(OC)c1)C(CC(=O)O)c1ccc2c(c1)CCO2 (stereo not drawn) [Example 140, 3-(Butyl-{4-[3-(2,5-dioxo-pyrrolidin-1-yl)-propyl]-3-methoxy-benzyl}-amino)-3-(2,3-dihydro-benzofuran-5-yl)-propionic acid]
26 | 45 | CCc1cc(CN(CC2CC2)C(CC(=O)O)c2ccc(Cl)cc2)ccc1OCCN1C(=O)CCC1=O (stereo not drawn) [Example 84, 3-(4-Chloro-phenyl)-3-(cyclopropylmethyl-{4-[2-(2,5-dioxo-pyrrolidin-1-yl)-ethoxy]-3-ethyl-benzyl}-amino)-propionic acid]
27 | 38 | COc1cc(CN(CC2CCCC2)C(CC(=O)O)c2ccc3c(c2)CCO3)ccc1OCCn1c(=O)ccn(C)c1=O (stereo not drawn) [Example 127, 3-(Cyclopentylmethyl-{3-methoxy-4-[2-(3-methyl-2,6-dioxo-3,6-dihydro-2H-pyrimidin-1-yl)-ethoxy]-benzyl}-amino)-3-(2,3-dihydro-benzofuran-5-yl)-propionic acid]
28 | 38 | CCCCN(Cc1ccc(OCCN2C(=O)CCC2=O)c(C)c1)C(CC(=O)O)c1ccc2c(c1)CCO2 (stereo not drawn) [Example 145, 3-(Butyl-{4-[2-(2,5-dioxo-pyrrolidin-1-yl)-ethoxy]-3-methyl-benzyl}-amino)-3-(2,3-dihydro-benzofuran-5-yl)-propionic acid]
29 | 31 | COc1cc(CN(CC2CCCC2)C(CC(=O)O)c2ccc(Cl)cc2)ccc1SCCN1C(=O)CCC1=O (stereo not drawn) [Example 188, 3-(4-Chloro-phenyl)-3-(cyclopentylmethyl-{4-[2-(2,5-dioxo-pyrrolidin-1-yl)-ethylsulfanyl]-3-methoxy-benzyl}-amino)-propionic acid]
30 | 31 | CCCCN(Cc1ccc(OCCN2C(=O)CCC2=O)c(CC)c1)C(CC(=O)O)c1ccc(Cl)cc1 (stereo not drawn) [Example 87, 3-(Butyl-{4-[2-(2,5-dioxo-pyrrolidin-1-yl)-ethoxy]-3-ethyl-benzyl}-amino)-3-(4-chloro-phenyl)-propionic acid]
